Key:
Assay in all cases: relative viability (nuclei count vs DMSO), 5 days (fraction); higher = more cells survive
NCI-H1755 = test system: NCI-H1755
How it was run: (§1)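 The day after seeding in 1536-well plates, lung cancer cell lines were treated by pin tool with a single drug, or with a fixed anchor-drug dose together with five library-drug doses (not always all listed) in √10 steps. After 5 days, a combined fix-and-stain solution (final 0.05% Triton X-100, 1% formaldehyde, 1 ug/ml Hoechst) was added. Nuclei counted on 4× images gave relative viability as treated counts over vehicle counts, reported as the median of duplicate plates.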

NCI-H1395 = test system: NCI-H1395
How it was run: as §1

NCI-H2170 = test system: NCI-H2170
How it was run: as §1

UMC-11 = test system: UMC-11
How it was run: as §1

NCI-H647 = test system: NCI-H647
How it was run: as §1

NCI-H2009 = test system: NCI-H2009
How it was run: as §1

HCC-15 = test system: HCC-15
How it was run: as §1

NCI-H522 = test system: NCI-H522
How it was run: as §1

HARA = test system: HARA
How it was run: as §1

NCI-H2228 = test system: NCI-H2228
How it was run: as §1

NCI-H1355 = test system: NCI-H1355
How it was run: as §1

O=c1cc(N2CCOCC2)oc2c(-c3cccc4c3sc3ccccc34)cccc12 + CC(=O)Nc1cccc(-n2c(=O)n(C3CC3)c(=O)c3c(Nc4ccc(I)cc4F)n(C)c(=O)c(C)c32)c1 [Trametinib] (partner 0.02 µM)
relative viability (NCI-H1755; first compound 0.01 µM): 0.807 | relative viability (NCI-H1755; first compound 0.03162 µM): 0.83 | relative viability (NCI-H1755; first compound 0.1 µM): 0.81 | relative viability (NCI-H1755; first compound 0.3162 µM): 0.741 | relative viability (NCI-H1755; first compound 1 µM): 0.819 | relative viability (NCI-H1395; first compound 0.03162 µM): 1.1 | relative viability (NCI-H1395; first compound 0.1 µM): 1.02 | relative viability (NCI-H1395; first compound 0.3162 µM): 1.07 | relative viability (NCI-H1395; first compound 1 µM): 1.01 | relative viability (NCI-H2170; first compound 0.01 µM): 0.895 | relative viability (NCI-H2170; first compound 0.03162 µM): 0.897 | relative viability (NCI-H2170; first compound 0.1 µM): 0.982 | relative viability (NCI-H2170; first compound 0.3162 µM): 0.801 | relative viability (NCI-H2170; first compound 1 µM): 0.889 | relative viability (UMC-11; first compound 0.01 µM): 0.734 | relative viability (UMC-11; first compound 0.03162 µM): 0.741 | relative viability (UMC-11; first compound 0.1 µM): 0.773 | relative viability (UMC-11; first compound 0.3162 µM): 0.756 | relative viability (UMC-11; first compound 1 µM): 0.832 | relative viability (NCI-H647; first compound 0.01 µM): 0.503 | relative viability (NCI-H647; first compound 0.03162 µM): 0.489 | relative viability (NCI-H647; first compound 0.1 µM): 0.487 | relative viability (NCI-H647; first compound 0.3162 µM): 0.449 | relative viability (NCI-H647; first compound 1 µM): 0.472 | relative viability (NCI-H2009; first compound 0.01 µM): 0.315 | relative viability (NCI-H2009; first compound 0.03162 µM): 0.294 | relative viability (NCI-H2009; first compound 0.1 µM): 0.255 | relative viability (NCI-H2009; first compound 0.3162 µM): 0.279 | relative viability (NCI-H2009; first compound 1 µM): 0.212 | relative viability (HCC-15; first compound 0.01 µM): 0.384 | relative viability (HCC-15; first compound 0.03162 µM): 0.388 | relative viability (HCC-15; first compound 0.1 µM): 0.288 | relative viability (HCC-15; first compound 0.3162 µM): 0.368 | relative viability (HCC-15; first compound 1 µM): 0.364 | relative viability (NCI-H522; first compound 0.01 µM): 0.733 | relative viability (NCI-H522; first compound 0.03162 µM): 0.86 | relative viability (NCI-H522; first compound 0.1 µM): 0.793 | relative viability (NCI-H522; first compound 0.3162 µM): 0.684 | relative viability (NCI-H522; first compound 1 µM): 0.963 | relative viability (HARA; first compound 0.01 µM): 0.377 | relative viability (HARA; first compound 0.03162 µM): 0.828 | relative viability (HARA; first compound 0.1 µM): 0.688 | relative viability (HARA; first compound 0.3162 µM): 0.621 | relative viability (HARA; first compound 1 µM): 0.649 | relative viability (NCI-H2228; first compound 0.01 µM): 0.723 | relative viability (NCI-H2228; first compound 0.03162 µM): 0.424 | relative viability (NCI-H2228; first compound 0.1 µM): 0.43 | relative viability (NCI-H2228; first compound 0.3162 µM): 0.557 | relative viability (NCI-H2228; first compound 1 µM): 0.534 | relative viability (NCI-H1355; first compound 0.01 µM): 0.435 | relative viability (NCI-H1355; first compound 0.03162 µM): 0.435 | relative viability (NCI-H1355; first compound 0.1 µM): 0.435 | relative viability (NCI-H1355; first compound 0.3162 µM): 0.409 | relative viability (NCI-H1355; first compound 1 µM): 0.399

From the supplement of paper PMC10307832
